Experiments:
Assay in all cases: drug sensitivity score (DSS3, normalised partial AUC of % inhibition dose-response) (DSS (score)); higher = more sensitive (stronger inhibition of viability); extreme values may be limits of the assay
[1] = tested on: FMOC03 (patient-derived mucinous ovarian cancer cells); conditions: 72 h; library: FO5A; assay format: 2D, 384-well, CellTiter-Glo
Method in brief: (§1)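 The drug sensitivity score is calculated as a partial area under the percent-inhibition dose-response curve, divided by the log of the upper asymptote; higher scores mean more sensitive. For this score, early-passage (under 10) patient-derived ovarian cancer cells were exposed on 384-well flat clear-bottom plates to compounds at five concentrations across a 10,000-fold range for 72 h at 37 °C, 5% CO2. Viability was read with CellTiter-Glo and processed in Breeze.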

[2] = tested on: FMOC25_1 (patient-derived low-grade serous ovarian cancer cells); conditions: 72 h; library: FO4B; assay format: 2D, 384-well, CellTiter-Glo
Method in brief: as §1

[3] = tested on: FMOC24 (patient-derived high-grade serous ovarian cancer cells); conditions: 72 h; library: FO5A; assay format: 2D, 384-well, CellTiter-Glo
Method in brief: as §1

[4] = tested on: FMOC02_2 (patient-derived low-grade serous ovarian cancer cells); conditions: 72 h; library: FO5A; assay format: 2D, 384-well, CellTiter-Glo
Method in brief: as §1

[5] = tested on: FMOC22 (patient-derived mucinous ovarian cancer cells); conditions: 72 h; library: FO5A; assay format: 2D, 384-well, CellTiter-Glo
Method in brief: as §1

[6] = tested on: FMOC06 (patient-derived mucinous ovarian cancer cells); conditions: 72 h; library: FO5A; assay format: 2D, 384-well, CellTiter-Glo
Method in brief: as §1

[7] = tested on: FMOC14 (patient-derived high-grade serous ovarian cancer cells); conditions: 72 h; library: FO5A; assay format: 2D, 384-well, CellTiter-Glo
Method in brief: as §1

[8] = tested on: FMOC25_2 (patient-derived low-grade serous ovarian cancer cells); conditions: 72 h; library: FO5A; assay format: 2D, 384-well, CellTiter-Glo
Method in brief: as §1

[9] = tested on: FMOC09 (patient-derived high-grade serous ovarian cancer cells); conditions: 72 h; library: FO5A; assay format: 2D, 384-well, CellTiter-Glo
Method in brief: as §1

[10] = tested on: FMOC02_3 (patient-derived low-grade serous ovarian cancer cells); conditions: 72 h; library: FO5A; assay format: 2D, 384-well, CellTiter-Glo
Method in brief: as §1

SMILES | drug sensitivity score [1] | drug sensitivity score [2] | drug sensitivity score [3] | drug sensitivity score [4] | drug sensitivity score [5] | drug sensitivity score [6] | drug sensitivity score [7] | drug sensitivity score [8] | drug sensitivity score [9] | drug sensitivity score [10]
Cc1nc(Nc2ncc(C(=O)Nc3c(C)cccc3Cl)s2)cc(N2CCN(CCO)CC2)n1 [Dasatinib] | 8.4 | 2.8 | 4.5 | 19.9 | 0 | 5 | 5.1 | 7.7 | 17.1 | 20.4
CC(=O)[C@]1(O)Cc2c(O)c3c(c(O)c2[C@@H](O[C@H]2C[C@H](N)[C@H](O)[C@H](C)O2)C1)C(=O)c1ccccc1C3=O [Idarubicin] | 4.8 | 9.2 | 9.4 | 7.8 | 7 | 5.8 | 6.1 | 9.1 | 6.3 | 9.1
CO[C@H]1C[C@@H]2CC[C@@H](C)[C@@](O)(O2)C(=O)C(=O)N2CCCC[C@H]2C(=O)O[C@H]([C@H](C)C[C@@H]2CC[C@@H](OP(C)(C)=O)[C@H](OC)C2)CC(=O)[C@H](C)/C=C(\C)[C@@H](O)[C@@H](OC)C(=O)[C@H](C)C[C@H](C)/C=C/C=C/C=C/1C [Ridaforolimus] | 4.5 | 10.3 | 0 | 11.1 | 9.3 | 5.7 | 3.4 | 11.8 | 4.2 | 13.8
CN(C)C1CCN(C(=O)c2ccc(NC(=O)Nc3ccc(-c4nc(N5CCOCC5)nc(N5CCOCC5)n4)cc3)cc2)CC1 [Gedatolisib] | 8.2 | 16.3 | 9.05 | 8.2 | 10.7 | 12.4 | 10.2 | 19.9 | 11.3 | 13.3
O=C(Nc1c[nH]nc1-c1nc2ccc(CN3CCOCC3)cc2[nH]1)NC1CC1 [AT9283] | 3.4 | 0.1 | 4.7 | 4.1 | 0.5 | 2.8 | 1.8 | 5.1 | 5.7 | 9.3
COc1cccc2c1C(=O)c1c(O)c3c(c(O)c1C2=O)C[C@@](O)(C(C)=O)C[C@@H]3O[C@H]1C[C@H](N)[C@H](O)[C@H](C)O1 [Daunorubicin] | 4.6 | 10.1 | 7.6 | 6.7 | 4.9 | 6.4 | 5.8 | 7.7 | 6.4 | 9.7
CC(C)Oc1ccc(C(=O)N[C@H](CNC(=O)CN(C)C)Cc2ccc(-c3cn4cccc([C@H](C)O)c4n3)cc2)cc1Cl | 5.5 | 3.3 | 4.8 | 3.8 | 5.7 | 2.7 | 3.5 | 8.8 | 7.3 | 11.9
O=C(/C=C\n1cnc(-c2cc(C(F)(F)F)cc(C(F)(F)F)c2)n1)NNc1cnccn1 [Selinexor] | 12.3 | 15.1 | 21.5 | 15.8 | 18.9 | 21.6 | 10.7 | 21.4 | 12.8 | 18.2
Cc1cc(Nc2cc(CN3CCOCC3)c3nc(C)c(Cc4ccc(Cl)cc4F)n3n2)n[nH]1 [Gandotinib] | 4.7 | 3.7 | 7.6 | 16.3 | 1.8 | 8.9 | 6.1 | 18.8 | 5.1 | 10.1
Cc1nc(-c2cn3c(n2)-c2ccc(-c4cnn(C(C)(C)C(N)=O)c4)cc2OCC3)n(C(C)C)n1 [Taselisib] | 4.5 | 8.2 | 0.85 | 12.7 | 2.9 | 9.6 | 4.3 | 8.6 | 10.1 | 12.2
CN[C@@H](C)C(=O)N[C@H]1CN(C(=O)CC(C)C)CC[C@H]2CC[C@@H](C(=O)NC(c3ccccc3)c3ccccc3)N2C1=O [AT-406] | 1.5 | 1.5 | 24.9 | 0 | 0 | 8.8 | 5.4 | 5 | 0 | 0.3
COC[C@H](NC(=O)c1cnc(C)s1)C(=O)N[C@@H](COC)C(=O)N[C@@H](Cc1ccccc1)C(=O)[C@@]1(C)CO1 [Oprozomib] | 17.3 | 14.6 | 20.9 | 13.1 | 16.6 | 12.9 | 19.5 | 20.4 | 10.6 | 15.1
CNc1ncc2cc(-c3cc(NC(=O)NCCC(C)(C)C)c(F)cc3C)c(C)nc2n1 | 12 | 11.1 | 1.7 | 12.5 | 9.3 | 11.8 | 1.3 | 14.8 | 9.5 | 16.9
COc1ncc(-c2ccc3nccc(-c4ccnnc4)c3c2)cc1NS(=O)(=O)c1ccc(F)cc1F [Omipalisib] | 18.4 | 24.2 | 8.5 | 24.2 | 13.9 | 20.6 | 15.2 | 22.1 | 19.1 | 23.9
COc1ccccc1S(=O)(=O)Nc1ccc2c(c1)CN(C)C(=O)N2 [PFI-1] | 2.9 | 1.1 | 3.2 | 5.3 | 3.6 | 3.6 | 1.2 | 5.7 | 3.2 | 7.1
Nc1nc(Cl)nc2c1ncn2[C@@H]1O[C@H](CO)[C@@H](O)[C@@H]1F [Clofarabine] | 4.1 | 8.5 | 4.9 | 8.9 | 10.5 | 5.3 | 0 | 16.5 | 7.8 | 13.7

SMILES | drug sensitivity score [1] | drug sensitivity score [2] | drug sensitivity score [3] | drug sensitivity score [4] | drug sensitivity score [5] | drug sensitivity score [6] | drug sensitivity score [7] | drug sensitivity score [8] | drug sensitivity score [9] | drug sensitivity score [10]
Cc1nc(Nc2n[nH]c3c2CN(C(=O)N[C@H](CN(C)C)c2ccccc2)C3(C)C)c2sccc2n1 | 10.6 | 16.7 | 8.1 | 12.8 | 10.5 | 13.7 | 6.5 | 26.6 | 10.2 | 20.9
CC[C@@]1(O)C(=O)OCc2c1cc1n(c2=O)Cc2cc3c(CN(C)C)c(O)ccc3nc2-1 [Topotecan] | 8.1 | 12.7 | 7 | 9.7 | 15.6 | 8.2 | 9.4 | 16.8 | 8.4 | 15.3
COC(=O)C[C@](O)(CCCC(C)(C)O)C(=O)O[C@@H]1C(OC)=C[C@]23CCCN2CCc2cc4c(cc2[C@H]13)OCO4 [Omacetaxine] | 16.7 | 23.8 | 23.6 | 20.2 | 15.3 | 19 | 21.9 | 24.6 | 19.1 | 23.8
NC(=O)N1CCC(CC(=O)N2CCC([C@H]3c4ncc(Br)cc4CCc4cc(Cl)cc(Br)c43)CC2)CC1 [Lonafarnib] | 9.8 | 2.7 | 7.5 | 6.6 | 15.1 | 12.1 | 10.3 | 9.8 | 7 | 0
Cc1c2oc3c(C)ccc(C(=O)N[C@@H]4C(=O)N[C@H](C(C)C)C(=O)N5CCC[C@H]5C(=O)N(C)CC(=O)N(C)[C@@H](C(C)C)C(=O)O[C@@H]4C)c3nc-2c(C(=O)N[C@@H]2C(=O)N[C@H](C(C)C)C(=O)N3CCC[C@H]3C(=O)N(C)CC(=O)N(C)[C@@H](C(C)C)C(=O)O[C@@H]2C)c(N)c1=O [Dactinomycin] | 21.7 | 23.3 | 23.2 | 22.1 | 21.5 | 22.9 | 21.7 | 28.8 | 16.7 | 27.2
O=C(c1cc(Cc2n[nH]c(=O)c3ccccc23)ccc1F)N1CCN(C(=O)C2CC2)CC1 [Olaparib] | 1.4 | 3 | 4.6 | 1.7 | 2.4 | 3.6 | 4.4 | 3.2 | 3.2 | 5
CC(=O)O[C@H]1C(=O)[C@@]2(C)[C@H]([C@H](OC(=O)c3ccccc3)[C@]3(O)C[C@H](OC(=O)[C@H](O)[C@@H](NC(=O)c4ccccc4)c4ccccc4)C(C)=C1C3(C)C)[C@]1(OC(C)=O)CO[C@@H]1C[C@@H]2O [Paclitaxel] | 11.9 | 6.7 | 0.1 | 8.7 | 12.5 | 10.1 | 0.4 | 16.7 | 13.6 | 17
S=c1[nH]cnc2nc[nH]c12 [Mercaptopurine] | 0 | 1.6 | 0.85 | 0.2 | 0 | 0.3 | 0 | 1.8 | 0 | 0
O=C1c2c(O)ccc(O)c2C(=O)c2c(NCCNCCO)ccc(NCCNCCO)c21 [Mitoxantrone] | 2.7 | 0.3 | 3.45 | 4 | 6 | 1.9 | 3.2 | 7 | 8.8 | 5.9
CC(C)Nc1cc(-c2c[nH]c(C(=O)N[C@H](CO)c3cccc(Cl)c3)c2)c(Cl)cn1 [Ulixertinib] | 10 | 12.3 | 0.05 | 10.6 | 7.5 | 11.4 | 0.6 | 10.6 | 6.7 | 13.1
COc1cc(C(=O)O)ccc1NC(=O)[C@@H]1N[C@@H](CC(C)(C)C)[C@](C#N)(c2ccc(Cl)cc2F)[C@H]1c1cccc(Cl)c1F [Idasanutlin] | 2.6 | 10.5 | 1.9 | 18.5 | 3.6 | 5.3 | 2.5 | 16.6 | 2 | 22.7
C=CC(=O)Nc1cccc(Nc2nc(Nc3ccc(N4CCN(C(C)=O)CC4)cc3OC)ncc2C(F)(F)F)c1 [Rociletinib] | 8.7 | 9.2 | 2.45 | 12.4 | 5.2 | 6.7 | 5.2 | 9.4 | 8.4 | 11.7
COc1cc(OC)c(/C=C/S(=O)(=O)Cc2ccc(OC)c(NCC(=O)O)c2)c(OC)c1 [Rigosertib] | 18.2 | 14.3 | 6.5 | 16.4 | 16.1 | 14.3 | 0.1 | 12 | 15.4 | 20.5
Cc1cnc(Nc2ccc(OCCN3CCCC3)cc2)nc1Nc1cccc(S(=O)(=O)NC(C)(C)C)c1 [Fedratinib] | 3.2 | 5.7 | 6.9 | 10.4 | 2.3 | 2.8 | 1.7 | 11.3 | 5.1 | 12.2
Cc1ncc(-c2ccnc(Nc3ccc(S(C)(=O)=O)cc3)n2)n1C(C)C [AZD-5438] | 7.5 | 8.1 | 13.6 | 12.4 | 7 | 8.2 | 9.7 | 12.8 | 3.4 | 15.2
COc1ccc(-c2ccc3c(N4CCOC[C@@H]4C)nc(N4CCOC[C@@H]4C)nc3n2)cc1CO [AZD8055] | 20.7 | 30.9 | 13.3 | 28.6 | 17.4 | 20.3 | 16.2 | 28.8 | 14.5 | 29.9
